Experimental data taken from patent US20110070293A1, “Methods for the Preparation of Liposomes Comprising Docetaxel” (priority 2009, published 2011).
Like-named read-outs stand apart in the source and are kept apart here.

Key:
[1] = Incorporation of docetaxel into liposome; type: physicochemical
Method: As provided herein, the sequence of the addition of docetaxel results in enhanced solubility of the docetaxel. The conventional method of incorporating a hydrophobic drug into liposome is by adding the drug to lipid before liposome preparation. See, e.g., Immordino, M. L. et al., Journal of Controlled Release, 2003, 91: 417-429. By the conventional process, the incorporation of the drug is only 0.3 to 0.7 mg/mL. When docetaxel is added after liposome preparation, the incorporation of docetaxel is increased from 0.3 mg/mL to 5 mg/mL, which is more than 10 fold increase in solubility of the drug in lipid alone.
In the conventional liposome preparation, the drug to lipid molar percent ratio is 4-6% with the incorporation of drug into liposome efficiency is only 56%. See Immordino, M. L. et al., Journal of Controlled Release, 2003, 91: 417-429.

[2] = cited from earlier work
[3] = Stability of docetaxel formulations upon dilution (reverse phase HPLC) and after lyophilization; type: physicochemical; conditions: for time docetaxel remained soluble and formulation stable upon dilution: RP-HPLC
Method: (§1) Docetaxel (5 mg) was added to 31 μL of oleic acid and mixed using a VORTEX®. Ethanolamine (6 μL) was subsequently added and mixed using a VORTEX®. After mixing, the sample was dispersed in 963 μL of water for injection. Docetaxel was soluble and the formulation clear at 5 mg/mL. Docetaxel remained soluble, and the formulation was stable, upon dilution (1:10 in 2.5% glycerol) up to 24 hours as analyzed by a reverse phase high performance liquid chromatography method.
(§2) Docetaxel (5.0 mg) was added to 1 mL of 0.05 M sodium oleate and mixed using a VORTEX®. Docetaxel was soluble and the formulation clear at 5.0 mg/mL. Docetaxel remained soluble, and the formulation was stable, upon dilution (1:10 in 2.5% glycerol) up to 24 hours as analyzed by a reverse phase high performance liquid chromatography method.
as §2, with “(2” for “(5.0”, “1” for “0.05”, “caprylate” for “oleate”, “by” for “using”, “2” for “5.0”, “(1:2” for “(1:10 in”
as §2, with “(7.0” for “(5.0”, “1” for “0.05”, “linoleate” for “oleate”, “7.0” for “5.0”, “(1:10” for “(1:10 in”
(§3) Docetaxel (5 mg) was added to 1 mL of pre-made liposome containing 2 mM sodium oleate and 6% soy phosphatidyl choline, 10% trehalose, pH adjusted to 5-7 using Acetic acid, mixed using a VORTEX®, and microfluidized using a Microfluidizer with 10 passes at 15,000 psi. Five additional passes with the Microfluidizer at 15,000 psi were made to incorporate all 5 mg of the drug into 1 mL of pre-made liposome. Docetaxel was soluble and the formulation was transparent at 5 mg/mL. Docetaxel remained soluble, and the formulation was stable, upon dilution (1:10 in D5W) up to 48 hours as analyzed by a reverse phase high performance liquid chromatography method.
(§4) Hydrophobic or lipophilic compounds can be solubilized directly in sodium (or any ion) salt of fatty acid dissolved in an organic solvent. The organic solvent is subsequently removed using rotary evaporation, spray drying, or any other pharmaceutically acceptable processes. The drug-sodium salt of fatty acid mixture is subsequently dispersed in water, isotonic glycerol, or any pharmaceutically acceptable isotonic solution to achieve a desired concentration of the solubilized compound. For example, docetaxel (5 mg/mL) was dissolved in 100 mM sodium oleate in 100% ethanol. Ethanol was completely evaporated using rotary evaporation at 20° C. The docetaxel-sodium oleate was reconstituted with Water For Injection (“WFI”) or 2.5% glycerol to provide 5 mg/mL, 10 mg/mL, or 20 mg/mL concentration of docetaxel.
(§5) 50 μl of Docetaxel in ethanol (100 mg/mL) was added to 1 mL of pre-made liposome containing 2 mM sodium oleate and 6% soy phosphatidyl choline, 10% trehalose and pH adjusted to 5-7 using Acetic acid, mixed using a VORTEX® and microfluidized using a Microfluidizer with 10 passes at 15,000 psi. Docetaxel was soluble and the formulation is transparent at 5 mg/mL. Docetaxel remained soluble, and the formulation was stable, upon dilution (1:10 in D5W) up to 48 hours as analyzed by a reverse phase high performance liquid chromatography method. […] The lyophilized product is reconstituted with water for injection at 5 mg, 10, or 20 mg/mL concentration, essentially free of organic solvent.

[4] = Solubilization of docetaxel in fatty acid, fatty acid salt or oleate liposome media; type: physicochemical; conditions: for solubility: aqueous with cosolvent or surfactant or cyclodextrin
Method: as §1, §2
as §2, with “(2” for “(5.0”, “1” for “0.05”, “caprylate” for “oleate”, “by” for “using”, “2” for “5.0”, “(1:2” for “(1:10 in”
as §2, with “(7.0” for “(5.0”, “1” for “0.05”, “linoleate” for “oleate”, “7.0” for “5.0”, “(1:10” for “(1:10 in”
as §3, §4, §5

[5] = docetaxel added to pre-made liposome
[6] = conventional liposome preparation (Immordino et al.)

Question: Which “incorporation of docetaxel into liposome” value ([1]; docetaxel added after liposome preparation) does the source give for `CC(=O)O[C@@]12CO[C@@H]1C[C@H](O)[C@@]1(C)C(=O)[C@H](O)C3=C(C)[C@@H](OC(=O)[C@H](O)[C@@H](NC(=O)OC(C)(C)C)c4ccccc4)C[C@@](O)([C@@H](OC(=O)c4ccccc4)[C@H]21)C3(C)C` [Docetaxel] here?
Answer: Its value is 5 mg/mL.

Question: What about the “increase in solubility of the drug versus lipid alone” value ([1]; docetaxel added after liposome preparation vs 0.3 mg/mL) of the same molecule?
Answer: Its value is “more than 10 fold”.

Question: And the “drug to lipid molar ratio” value [1, 5]?
Answer: Its value is 8%.

Question: And the “efficiency of incorporation of docetaxel into liposome” value [1, 5]?
Answer: Its value is “about 100%”.

Question: And the “drug to lipid molar percent ratio” value [2, 6]?
Answer: The value was 4-6%.

Question: What about the “efficiency of incorporation of drug into liposome” value [2, 6] of the same molecule?
Answer: Its value is 56%.

Question: And the “incorporation of the drug into liposome” value ([2]; conventional process: drug added to lipid before liposome preparation (Immordino et al.))?
Answer: The value was 0.3 to 0.7 mg/mL.

Question: And the “time docetaxel remained soluble and formulation stable upon dilution” value ([3]; Example 6: oleic acid/ethanolamine, dilution 1:10 in 2.5% glycerol)?
Answer: Its value is “up to 24 hours”.

Question: What about the “time docetaxel remained soluble and formulation stable upon dilution” value ([3]; Example 7: 0.05 M sodium oleate, dilution 1:10 in 2.5% glycerol) of the same molecule?
Answer: The value was “up to 24 hours”.

Question: What about the “time docetaxel remained soluble and formulation stable upon dilution” value ([3]; Example 8: 1 M sodium caprylate, dilution 1:2 2.5% glycerol) of the same molecule?
Answer: The value was “up to 24 hours”.

Question: And the “time docetaxel remained soluble and formulation stable upon dilution” value ([3]; Example 9: 1 M sodium linoleate, dilution 1:10 2.5% glycerol)?
Answer: Its value is “up to 24 hours”.

Question: And the “time docetaxel remained soluble and formulation stable upon dilution” value ([3]; Example 10: oleate liposome, dilution 1:10 in D5W)?
Answer: The value was “up to 48 hours”.

Question: What about the “time reconstituted docetaxel remained in solution” value ([3]; Example 11: docetaxel-sodium oleate reconstituted with WFI or 2.5% glycerol) of the same molecule?
Answer: Its value is 2 hours, 4 hours, 6 hours, 8 hours or 24 hours.

Question: And the “time docetaxel remained soluble and formulation stable upon dilution” value ([3]; Example 12: oleate liposome, dilution 1:10 in D5W)?
Answer: The value was “up to 48 hours”.

Question: What about the solubility ([4]; 0.05 M sodium oleate solution, Example 7: 0.05 M sodium oleate, read-out: concentration at which docetaxel was soluble and formulation clear) of the same molecule?
Answer: The solubility was 5000 µg/mL.

Question: What about the solubility ([4]; 1 M sodium caprylate solution, Example 8: 1 M sodium caprylate, read-out: concentration at which docetaxel was soluble and formulation clear) of the same molecule?
Answer: Its solubility is 2000 µg/mL.

Question: What about the solubility ([4]; 1 M sodium linoleate solution, Example 9: 1 M sodium linoleate, read-out: concentration at which docetaxel was soluble and formulation clear) of the same molecule?
Answer: The solubility was 7000 µg/mL.

Question: What about the “concentration at which docetaxel was soluble and formulation transparent” value ([4]; Example 12: docetaxel in ethanol added to pre-made liposome, 2 mM sodium oleate, 6% soy phosphatidyl choline, 10% trehalose, pH 5-7) of the same molecule?
Answer: Its value is 5000 µg/mL.

Question: And the solubility ([4]; Example 10: solid docetaxel in pre-made liposome, 2 mM sodium oleate, 6% soy phosphatidyl choline, 10% trehalose, pH 5-7, read-out: concentration at which docetaxel was soluble and formulation transparent)?
Answer: Its solubility is 5000 µg/mL.

Question: And the solubility ([4]; oleic acid / ethanolamine dispersion in water for injection, Example 6: oleic acid, ethanolamine, water for injection, read-out: concentration at which docetaxel was soluble and formulation clear)?
Answer: Its solubility is 5000 µg/mL.
